The record followed here is ChEMBL document CHEMBL5335846, “Uncovering the Power of HSCCC: Separation of Diastereomeric and Regioisomeric Styrylpyrones from the Stem Bark of Goniothalamus leiocarpus” (J Nat Prod, 2024).

Series [1] deals with Staphylococcus aureus. Description: Antibacterial activity against fluoroquinolone-resistant Staphylococcus aureus SA1199B assessed as inhibition of microbial growth. The class given is functional.
Series [2] relates to Staphylococcus aureus. Description: Synergistic antibacterial activity against Staphylococcus aureus SA1199B assessed as norfloxacin MIC. Type of series: functional.
Series [3] in a line: Cytotoxicity against human LM3 cells assessed as inhibition of cell growth incubated for 24 hrs by MTT assay. The class given is functional, cell-based. The note with it: LM3, 24 h. For orientation: Tetrazolium assays rely on reduction of a dye to a coloured formazan, in cell work by metabolically active cells.
In series [4] the test system is MHCC97H. Put plainly: Cytotoxicity against human MHCC97H cells assessed as inhibition of cell growth incubated for 24 hrs by MTT assay. Type of series: functional, cell-based.
Series [5] concerns Staphylococcus aureus. Description: Antibacterial activity against Staphylococcus aureus SA1199B assessed as inhibition of microbial growth. Type of series: functional.
Series [6] concerns Staphylococcus aureus. Put plainly: Potency index, ratio of test compound MIC to norfloxacin MIC for antibacterial activity against fluoroquinolone-resistant Staphylococcus aureus SA1199B assessed as inhibition of microbial growth. Type of series: functional.
Series [7] has as its system Staphylococcus aureus. Description: Synergistic antibacterial activity against Staphylococcus aureus SA1199B assessed as fractional inhibitory concentration index in presence of norfloxacin. Type of series: functional.
The subject of series [8] is Staphylococcus aureus. Description: Synergistic antibacterial activity against Staphylococcus aureus SA1199B assessed as inhibition of microbial growth in presence of norfloxacin. The class given is functional.
Series [9] concerns HepG2. Put plainly: Cytotoxicity against human HepG2 cells assessed as inhibition of cell growth incubated for 24 hrs by MTT assay. Type of series: functional, cell-based. To be noted: HepG2, 24 h.
The nature of series [10]: Cytotoxicity against HEK293T cells assessed as inhibition of cell growth incubated for 24 hrs by MTT assay. To be noted: human. Type of series: toxicity, cell-based, HEK-293T.
For series [11], the system named is Staphylococcus aureus. Put plainly: Synergistic antibacterial activity against Staphylococcus aureus […] assessed as streptomycin MIC. Type of series: functional.
In series [12] the target is T1, Quinolone resistance protein NorA (Staphylococcus aureus) (UniProt P0A0J7).
T1 sequence (whole entry): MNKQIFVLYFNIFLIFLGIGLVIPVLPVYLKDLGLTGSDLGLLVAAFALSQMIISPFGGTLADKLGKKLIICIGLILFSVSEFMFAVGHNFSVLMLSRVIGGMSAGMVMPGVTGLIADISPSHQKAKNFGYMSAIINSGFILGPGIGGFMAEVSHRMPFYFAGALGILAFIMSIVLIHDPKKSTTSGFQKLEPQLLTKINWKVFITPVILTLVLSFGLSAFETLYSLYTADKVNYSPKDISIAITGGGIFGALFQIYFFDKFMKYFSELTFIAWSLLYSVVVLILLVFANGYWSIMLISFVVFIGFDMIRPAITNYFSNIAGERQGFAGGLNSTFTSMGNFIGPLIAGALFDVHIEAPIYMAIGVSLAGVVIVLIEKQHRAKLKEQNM
Description: Inhibition of NorA efflux pump in norfloxacin-resisitant Staphylococcus aureus SA1199B overexpressing NorA gene assessed as reduction in EtBr efflux inhibition at 25 uM incubated for 20 mins by fluorometric assay.

Series [13] relates to Staphylococcus aureus. Description: Antibacterial activity against Staphylococcus aureus RN4220 assessed as inhibition of microbial growth. The class given is functional.
Series [14] has as its system Staphylococcus aureus. Put plainly: Synergistic antibacterial activity against Staphylococcus aureus RN4220 assessed as inhibition of microbial growth in presence of streptomycin. Type of series: functional.
In series [15] the test system is Staphylococcus aureus. Description: Synergistic antibacterial activity against Staphylococcus aureus XU212 assessed as inhibition of microbial growth in presence of tetracycline. Type of series: functional.
Series [16] has as its system Staphylococcus aureus. Description: Additive antibacterial activity against Staphylococcus aureus XU212 assessed as fractional inhibitory concentration index in presence of tetracycline. The class given is functional.
Series [17] has as its system Staphylococcus aureus. Description: Antibacterial activity against Staphylococcus aureus XU212 assessed as inhibition of microbial growth. The class given is functional.
In series [18] the test system is Staphylococcus aureus. Description: Synergistic antibacterial activity against Staphylococcus aureus XU212 assessed as tetracyclin MIC. The class given is functional.
Series [19] relates to Staphylococcus aureus. Description: Synergistic antibacterial activity against Staphylococcus aureus RN4220 assessed as fractional inhibitory concentration index in presence of streptomycin. The class given is functional.
The subject of series [20] is LS-513. Description: Cytotoxicity against human LS-513 cells assessed as inhibition of cell growth incubated for 24 hrs by MTT assay. Type of series: functional, cell-based. To be noted: LS-513, 24 h.
Series [21] concerns COLO 205. Put plainly: Cytotoxicity against human COLO 205 cells assessed as inhibition of cell growth incubated for 24 hrs by MTT assay. The note with it: COLO 205, 24 h. Type of series: functional, cell-based.
For series [22], the system named is SW-620. Put plainly: Cytotoxicity against human SW620 cells assessed as inhibition of cell growth incubated for 24 hrs by MTT assay. To be noted: SW-620, 24 h. The class given is functional, cell-based.
In series [23] the test system is Staphylococcus aureus. Description: Additive antibacterial activity against Staphylococcus aureus RN4220 assessed as fractional inhibitory concentration index in presence of streptomycin. Type of series: functional.

Active and inactive are the calls of the source. Where only a bound is given, the exact number is not on record here.

Turning to `O=C1C=CC[C@@H]([C@@H](O)[C@H](Oc2c(O)cc3c(c2O)C(=O)C[C@@H](c2ccccc2)O3)c2ccccc2)O1`, the MIC (in general, the smallest concentration in the dilution series that meets the test's criterion for growth inhibition) is 16 µg/mL in series [1], 16 µg/mL in series [2], > 128 µg/mL in series [5] and 16 µg/mL in series [8]. For the same molecule, the IC50 – broadly, the midpoint of a concentration-inhibition curve – was found to be 21 µM in series [3], 41 µM in [4] and 66 µM in [9]. In series [6], the Ratio is on record as 8. In addition, in series [7], the “fractional inhibitory concentration index (FICI)” value was 0.18. In [10], the IC50 at 24 h is > 100 µM.

Turning to `O=C1C=CC[C@H]([C@H](O)[C@H](c2ccccc2)c2c(O)cc3c(c2O)C(=O)C[C@@H](c2ccccc2)O3)O1`, the IC50 in [3], in series [4] and in [9] was > 100 µM each time. In addition, the concentration for half-maximal inhibition (IC50) at 24 h in [10] was > 100 µM.

Take `O=C1C=CC[C@@H]([C@@H](O)[C@@H](c2ccccc2)c2c(O)cc3c(c2O)C(=O)C[C@@H](c2ccccc2)O3)O1`: the MIC in series [1] is 16 µg/mL; in series [11], 8 µg/mL; in series [2], 16 µg/mL; in [5], > 512 µg/mL; in series [13] it was 64 µg/mL; in series [14] it was 8 µg/mL. For the same molecule, the MIC was 64 µg/mL in series [15], > 512 µg/mL in series [17], 8 µg/mL in [8] and 128 µg/mL in series [18]. The IC50 in series [3] amounted to 30 µM; in [4], 63 µM; in [9], 63 µM. The inhibition result in series [12] was “Active”. In addition, the Ratio in [6] amounted to 8. The “fractional inhibitory concentration index (FICI)” value in [7] is given as 0.14; in [16] it was 0.62; in series [19] it was 0.37. For the same molecule, the IC50 at 24 h in series [10] was 90 µM.

For `CN[C@@H]1[C@H](O[C@H]2[C@H](O[C@H]3[C@H](O)[C@@H](O)[C@H](N=C(N)N)[C@@H](O)[C@@H]3N=C(N)N)O[C@@H](C)[C@]2(O)C=O)O[C@@H](CO)[C@H](O)[C@H]1O` [STREPTOMYCIN], the MIC in [13] is 32 µg/mL.

Consider `O=C1C=CC[C@@H]([C@H](O)[C@@H](c2ccccc2)c2c(O)cc(O)c3c2O[C@H](c2ccccc2)CC3=O)O1`, for which the IC50 in series [20] was 2.4 µM; in series [3], > 100 µM; in [4], > 100 µM; in series [21] it was 12 µM; in series [22] it was 3.9 µM; in series [9] it was > 100 µM. Also, the MIC amounted to 16 µg/mL in series [11]; 32 µg/mL in series [2]; 256 µg/mL in series [5]; 64 µg/mL in [13]; 16 µg/mL in series [14]; 64 µg/mL in series [15]. In addition, the minimal inhibitory concentration (MIC) stood at 512 µg/mL in [17], 16 µg/mL in series [8] and 64 µg/mL in [18]. In [12], the inhibition result was “Active”. The Ratio in series [6] was 4. Further, the “fractional inhibitory concentration index (FICI)” value came out at 0.31 in series [7], 0.62 in series [16] and 0.5 in series [23]. For the same molecule, the IC50 at 24 h in [10] is > 100 µM.

Turning to `O=C1C=CC[C@H]([C@@H](O)[C@H](Oc2c(O)cc3c(c2O)C(=O)C[C@@H](c2ccccc2)O3)c2ccccc2)O1`, the MIC in [1] was 16 µg/mL; in [2] it was 16 µg/mL; in [5] it was > 128 µg/mL; in series [8] it was 32 µg/mL. The IC50 in series [3], in series [4] and in [9] was > 100 µM in each case. In addition, the Ratio in series [6] was determined as 8. For the same molecule, the “fractional inhibitory concentration index (FICI)” value in series [7] was 0.25. The concentration for half-maximal inhibition (IC50) at 24 h in [10] is > 100 µM.

As for `O=C1C=CC[C@H]([C@@H](O)[C@H](c2ccccc2)c2c(O)cc3c(c2O)C(=O)C[C@@H](c2ccccc2)O3)O1`, the IC50 is 1.6 µM in series [20]; 33 µM in series [3]; > 100 µM in [4]; 2.8 µM in series [21]; 2.6 µM in series [22]; > 100 µM in [9]. Further, the minimal inhibitory concentration (MIC) in series [11] is 8 µg/mL; in series [2], 32 µg/mL; in [5], > 512 µg/mL; in series [13], 64 µg/mL; in [14], 16 µg/mL; in [15], 64 µg/mL. Moreover, the MIC was > 512 µg/mL in series [17], 16 µg/mL in [8] and 64 µg/mL in series [18]. Besides, the inhibition result in series [12] is “Active”. For the same molecule, the Ratio in series [6] is listed as 4. Also, the “fractional inhibitory concentration index (FICI)” value was 0.28 in [7], 0.62 in series [16] and 0.37 in series [19]. Besides, the IC50 at 24 h in series [10] is > 100 µM.

Consider `O=c1[nH]cc(F)c(=O)[nH]1` [FLUOROURACIL], for which the values for the IC50 in [20], in [21] and in series [22] were 84 µM, 32 µM and 43 µM, respectively.

With `CCn1cc(C(=O)O)c(=O)c2cc(F)c(N3CCNCC3)cc21` [NORFLOXACIN], the MIC in series [5] worked out at 128 µg/mL.

For `O=C1C=CC[C@H]([C@@H](O)[C@@H](c2ccccc2)c2c(O)cc(O)c3c2O[C@H](c2ccccc2)CC3=O)O1`, the values for the MIC in [2], in [5] and in [8] were 32 µg/mL, > 512 µg/mL and 64 µg/mL, respectively. The values for the half-maximal inhibitory concentration (IC50) in series [3], in [4] and in series [9] were 82 µM, > 100 µM and 82 µM, respectively. Further, the “fractional inhibitory concentration index (FICI)” value in [7] is given as 0.37. In addition, the half-maximal inhibitory concentration (IC50) at 24 h in series [10] was > 100 µM.

For `O=C1C=CC[C@H]([C@@H](O)[C@H](c2ccccc2)c2c(O)cc(O)c3c2O[C@H](c2ccccc2)CC3=O)O1`, the results for the minimum inhibitory concentration (MIC) in [2], in series [5] and in [8] were 32 µg/mL, 128 µg/mL and 16 µg/mL, respectively. In addition, the IC50 in series [3], in series [4] and in series [9] was > 100 µM throughout. In addition, the inhibition entry in [12] is “Active”. Further, the Ratio in series [6] is 4. Moreover, the “fractional inhibitory concentration index (FICI)” value in series [7] stood at 0.37. For the same molecule, the IC50 at 24 h in series [10] is > 100 µM.

Regarding `N#CC(C#N)=NNc1cccc(Cl)c1`, the inhibition result in series [12] was “Active”.

Turning to `CNC(=O)c1cc(Oc2ccc(NC(=O)Nc3ccc(Cl)c(C(F)(F)F)c3)cc2)ccn1` [SORAFENIB], the values for the IC50 in series [3], in [4] and in [9] were 9.2 µM, 15 µM and 14 µM, respectively.

`CN(C)[C@@H]1C(O)=C(C(N)=O)C(=O)[C@@]2(O)C(O)=C3C(=O)c4c(O)cccc4[C@@](C)(O)[C@H]3C[C@@H]12` [TETRACYCLINE]: the MIC in series [17] amounted to 128 µg/mL.
